# Patent US10358434B2, “2-(3-pyridinyl)-1H-benzimidazole derivative compound and medicament containing same” (NIHON MEDI-PHYSICS CO., LTD., priority 2014, dated 2019)
# Assays:
# [1] = Plasma stability evaluation (TLC analysis); type: in vitro ADME; conditions: 37° C., 60 minutes, TLC analysis
# Method in brief: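 Radiolabelled compounds were incubated in heparin-treated pooled normal human plasma at 37° C for 60 minutes. After methanol deproteinization and centrifugation, stability was assessed by TLC under the conditions used for each compound's synthesis.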
# [2] = tested on: human adrenal gland section expressing aldosterone-producing adenoma; assay: In vitro autoradiography using human adrenal adenoma; type: binding; conditions: section of FIG. 17(a)
# Method in brief: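 Frozen 7-μm sections of human adrenal bearing aldosterone-producing adenoma were immersed 10 min in radioligand (5-33 kBq/mL) in PBS with 1% fatty-acid-free BSA, washed, then exposed to imaging plates for 16-20 h. Equal-area ROI PSL in adenoma (B2) versus normal cortex (B1) gave B2/B1, corrected for nuclide half-life, added activity and exposure time.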
# [3] = In vivo kinetics experiment (radioactivity distribution); design: species or system Wistar male rat; conditions: rat, caudal vein
# Method in brief: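 Male Wistar rats (9 weeks) under isoflurane received approximately 1 to 3.7 MBq radiotracer in saline with 1 w/v % ascorbic acid by tail-vein injection. At 10, 30 and 60 min, rats were exsanguinated; blood, organs and remaining body weighed and counted, giving % ID/g and adrenal-to-tissue ratios.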
substance,measurement,setting,value
Methyl 1-[4-(1-cyclopropyl-6-[^123I]iodo-1H-imidazobenzo-2-yl)-3-pyridinylmethyl)]-1H-imidazolecarboxylate [[^123I] 601],Radiochemical purity after incubation in human plasma,[1],98%
same,B2/B1 accumulation ratio,[2],1.05
same,"B2 (PSL value, aldosterone-producing adenoma)",[2]; site 71a,3201
same,"B1 (PSL value, normal adrenal cortex)",[2]; site 72a,3040
same,Adrenal gland/blood ratio of radioactivity accumulation,[3]; 10 min after administration,49.76 ± 8.04
same,Adrenal gland/fat ratio of radioactivity accumulation,[3]; 10 min after administration,48.18 ± 26.02
same,Adrenal gland/kidney ratio of radioactivity accumulation,[3]; 10 min after administration,11.53 ± 2.04
same,Adrenal gland/liver ratio of radioactivity accumulation,[3]; 10 min after administration,3.21 ± 0.44
same,Adrenal gland/muscle ratio of radioactivity accumulation,[3]; 10 min after administration,51.74 ± 11.28
same,Adrenal gland/small intestine ratio of radioactivity accumulation,[3]; 10 min after administration,6.93 ± 2.04
same,Radioactivity distribution Adrenal gland,[3]; 10 min after administration,13.40 ± 2.41 % ID/g
same,Radioactivity distribution Bladder (including urine),[3]; 10 min after administration,0.65 ± 0.26 % ID/g
same,Radioactivity distribution Blood,[3]; 10 min after administration,0.27 ± 0.01 % ID/g
same,Radioactivity distribution Fat,[3]; 10 min after administration,0.34 ± 0.16 % ID/g
same,Radioactivity distribution Heart,[3]; 10 min after administration,0.61 ± 0.03 % ID/g
same,Radioactivity distribution Kidney,[3]; 10 min after administration,1.16 ± 0.02 % ID/g
same,Radioactivity distribution Large intestine,[3]; 10 min after administration,0.14 ± 0.01 % ID/g
same,Radioactivity distribution Liver,[3]; 10 min after administration,4.15 ± 0.27 % ID/g
same,Radioactivity distribution Lung,[3]; 10 min after administration,0.54 ± 0.01 % ID/g
same,Radioactivity distribution Muscle (lower limbs),[3]; 10 min after administration,0.26 ± 0.02 % ID/g
same,Radioactivity distribution Remaining whole body,[3]; 10 min after administration,0.30 ± 0.01 % ID/g
same,Radioactivity distribution Small intestine,[3]; 10 min after administration,1.99 ± 0.27 % ID/g
same,Radioactivity distribution Spleen,[3]; 10 min after administration,0.51 ± 0.02 % ID/g
same,Radioactivity distribution Stomach,[3]; 10 min after administration,0.83 ± 0.25 % ID/g
same,Radioactivity distribution Testis,[3]; 10 min after administration,0.32 ± 0.01 % ID/g
same,Radioactivity distribution Thyroid gland,[3]; 10 min after administration,0.62 ± 0.09 % ID/g
same,Radioactivity distribution Whole brain,[3]; 10 min after administration,0.15 ± 0.01 % ID/g
same,Adrenal gland/blood ratio of radioactivity accumulation,[3]; 30 min after administration,88.31 ± 19.36
same,Adrenal gland/fat ratio of radioactivity accumulation,[3]; 30 min after administration,34.33 ± 3.72
same,Adrenal gland/kidney ratio of radioactivity accumulation,[3]; 30 min after administration,28.94 ± 22.29
same,Adrenal gland/liver ratio of radioactivity accumulation,[3]; 30 min after administration,6.49 ± 1.59
same,Adrenal gland/muscle ratio of radioactivity accumulation,[3]; 30 min after administration,72.90 ± 18.29
same,Adrenal gland/small intestine ratio of radioactivity accumulation,[3]; 30 min after administration,3.30 ± 0.96
same,Radioactivity distribution Adrenal gland,[3]; 30 min after administration,17.21 ± 1.46 % ID/g
same,Radioactivity distribution Bladder (including urine),[3]; 30 min after administration,0.41 ± 0.03 % ID/g
same,Radioactivity distribution Blood,[3]; 30 min after administration,0.20 ± 0.03 % ID/g
same,Radioactivity distribution Fat,[3]; 30 min after administration,0.50 ± 0.03 % ID/g
same,Radioactivity distribution Heart,[3]; 30 min after administration,0.42 ± 0.08 % ID/g
same,Radioactivity distribution Kidney,[3]; 30 min after administration,0.80 ± 0.39 % ID/g
same,Radioactivity distribution Large intestine,[3]; 30 min after administration,0.15 ± 0.01 % ID/g
same,Radioactivity distribution Liver,[3]; 30 min after administration,2.71 ± 0.39 % ID/g
same,Radioactivity distribution Lung,[3]; 30 min after administration,0.43 ± 0.07 % ID/g
same,Radioactivity distribution Muscle (lower limbs),[3]; 30 min after administration,0.24 ± 0.04 % ID/g
same,Radioactivity distribution Remaining whole body,[3]; 30 min after administration,0.24 ± 0.03 % ID/g
same,Radioactivity distribution Small intestine,[3]; 30 min after administration,5.54 ± 1.72 % ID/g
same,Radioactivity distribution Spleen,[3]; 30 min after administration,0.35 ± 0.07 % ID/g
same,Radioactivity distribution Stomach,[3]; 30 min after administration,0.86 ± 0.23 % ID/g
same,Radioactivity distribution Testis,[3]; 30 min after administration,0.31 ± 0.05 % ID/g
same,Radioactivity distribution Thyroid gland,[3]; 30 min after administration,0.69 ± 0.26 % ID/g
same,Radioactivity distribution Whole brain,[3]; 30 min after administration,0.11 ± 0.02 % ID/g
same,Adrenal gland/blood ratio of radioactivity accumulation,[3]; 60 min after administration,73.52 ± 21.70
same,Adrenal gland/fat ratio of radioactivity accumulation,[3]; 60 min after administration,18.31 ± 9.45
same,Adrenal gland/kidney ratio of radioactivity accumulation,[3]; 60 min after administration,10.42 ± 4.49
same,Adrenal gland/liver ratio of radioactivity accumulation,[3]; 60 min after administration,4.79 ± 1.48
same,Adrenal gland/muscle ratio of radioactivity accumulation,[3]; 60 min after administration,63.30 ± 21.65
same,Adrenal gland/small intestine ratio of radioactivity accumulation,[3]; 60 min after administration,0.99 ± 0.55
same,Radioactivity distribution Adrenal gland,[3]; 60 min after administration,8.87 ± 3.98 % ID/g
same,Radioactivity distribution Bladder (including urine),[3]; 60 min after administration,1.17 ± 0.51 % ID/g
same,Radioactivity distribution Blood,[3]; 60 min after administration,0.12 ± 0.02 % ID/g
same,Radioactivity distribution Fat,[3]; 60 min after administration,0.50 ± 0.09 % ID/g
same,Radioactivity distribution Heart,[3]; 60 min after administration,0.26 ± 0.05 % ID/g
same,Radioactivity distribution Kidney,[3]; 60 min after administration,0.84 ± 0.09 % ID/g
same,Radioactivity distribution Large intestine,[3]; 60 min after administration,0.14 ± 0.02 % ID/g
same,Radioactivity distribution Liver,[3]; 60 min after administration,1.80 ± 0.26 % ID/g
same,Radioactivity distribution Lung,[3]; 60 min after administration,0.26 ± 0.03 % ID/g
same,Radioactivity distribution Muscle (lower limbs),[3]; 60 min after administration,0.14 ± 0.02 % ID/g
same,Radioactivity distribution Remaining whole body,[3]; 60 min after administration,0.15 ± 0.01 % ID/g
same,Radioactivity distribution Small intestine,[3]; 60 min after administration,9.33 ± 1.02 % ID/g
same,Radioactivity distribution Spleen,[3]; 60 min after administration,0.20 ± 0.03 % ID/g
same,Radioactivity distribution Stomach,[3]; 60 min after administration,0.50 ± 0.29 % ID/g
same,Radioactivity distribution Testis,[3]; 60 min after administration,0.22 ± 0.05 % ID/g
same,Radioactivity distribution Thyroid gland,[3]; 60 min after administration,0.93 ± 0.47 % ID/g
same,Radioactivity distribution Whole brain,[3]; 60 min after administration,0.10 ± 0.04 % ID/g
